Data reported in US20250268894A1, “MACROCYCLE COMPOUNDS FOR THE TREATMENT OF CANCER” (Hoffmann-La Roche Inc., priority 2022, published 2025).

Columns and labels:
[1] = tested on: phosphorylation of ERK, KRAS G12C in NCI-H358 cells; experiment: pERK inhibition assay, KRAS G12C in NCI-H358 cells; assay type: cell-based, human; details: NCI-H358, 4 hours
Procedure: (§1) This assay is to measure the ability of test compounds in inhibiting the phosphorylation of ERK, the downstream signaling of KRAS G12C in NCI-H358 cells, KRAS G12D in AGS cells, and KRAS G12V in SW620. NCI-H358 (ATCC-CRL5807) cells, AGS (ATCC-CRL-1739) cells, SW620 (ATCC-CCL-227) cells were all grown and maintained using RPMI-1640 medium (Thermo Fisher Scientific) with 10% fetal bovine serum and 1% penicillin/streptomycin. On the day prior to compound addition, cells were plated in tissue culture-treated 96 well plates (Corning-3699) at a density of 30,000 cell/well, 20,000 cell/well, 30,000 cell/well for NCI-H358, AGS and SW620 respectively, and allowed for attachment overnight. Diluted compounds were then added in a final concentration of 0.5% DMSO. After 4 hours of incubation, the medium was removed, 100 μL of 4% formaldehyde was added, and the assay plates were incubated at room temperature for 20 minutes. The plates were then washed once with phosphate buffered saline (PBS), and permeabilized with 100 μL of chilled methanol for 10 minutes. Non-specific antibody binding to the plates was blocked using 50 μL 1X BSA blocking buffer (Thermo-37520, 10-fold dilution by Phosphate-Buffered Saline Tween (PBST) for at least 1 hour at room temperature.
(§2) The amount of phosphor-ERK was determined using an antibody specific for phosphorylated form of ERK. Primary antibody (PERK, CST-4370, Cell Signaling Technology) was diluted 1:300 in blocking buffer, with 50 μL aliquoted to each well, and incubated overnight at 4° C. Cells was washed five times for 5 minutes with PBST. Secondary antibody (HRP-linked anti-rabbit IgG, CST-7074, Cell Signaling Technology) was diluted 1:1000 in blocking buffer, and 50 μL was added to each well and incubated 1-2 hrs at room temperature. Cells was washed […] for 5 minutes with PBST, 100 μL TMB ELISA substrate (abcam-ab171523) were added and gently shake for 20 minutes. 50 μL stop solution (abcam-ab171529) were added, and then read the signal (OD450) by EnVision.
(§3) IC50 was determined by fitting a 4-parameter sigmoidal concentration response model.

[2] = tested on: NCI-H358 cells (KRAS G12C); experiment: Cell viability assay (Cell Counting Kit-8), KRAS G12C; assay type: cell-based; details: Homo sapiens, NCI-H358, 72 hrs
Procedure: (§4) The purpose of this cellular assay was to determine the effects of test compounds on the proliferation of human cancer cell lines NCI-H358 (ATCC-CRL5807) cells, AGS (ATCC-CRL-1739) cells, SW620 (ATCC-CCL-227) over a 3-day treatment period by quantifying the amount of NADPH present at endpoint using Cell Counting Kit-8.
(§5) Cells were seeded at 5,000 cells/well (NCI-H358), 2,000 cells/well (AGS)2,000 cells/well (SW620) in 96-well assay plates (Corning-3699) and incubated overnight. On the day of the assay, diluted compounds were then added in a final concentration of 0.5% DMSO. After 72 hrs incubation, a tenth of the volume of cell counting kit 8 (Dnjindo-CK04) was added into each well. Read the signal (OD450 minus OD650) using EnVision after 2 hrs incubation. IC50 was determined by fitting a 4-parameter sigmoidal concentration response model.

[3] = tested on: phosphorylation of ERK, KRAS G12D in AGS cells; experiment: pERK inhibition assay, KRAS G12D in AGS cells; assay type: cell-based, human; details: 4 hours
Procedure: as §1, §2, §3

AGS cells (KRAS G12D) = experiment: Cell viability assay (Cell Counting Kit-8), KRAS G12D; assay type: cell-based; details: Homo sapiens, 72 hrs
Procedure: as §4, §5

[4] = tested on: phosphorylation of ERK, KRAS G12V in SW620 cells; experiment: pERK inhibition assay, KRAS G12V in SW620; assay type: cell-based, human
Procedure: as §1, §2, §3

SW620 cells (KRAS G12V) = experiment: Cell viability assay (Cell Counting Kit-8), KRAS G12V; assay type: cell-based; details: Homo sapiens, SW-620, SW620, 72 hrs
Procedure: as §4, §5

[5] = Homo sapiens, SW-620, SW620, 4 hours

IC50 ([1]; Homo sapiens) [nM]	IC50 [2] [nM]	IC50 ([3]; Homo sapiens) [nM]	IC50 (AGS cells (KRAS G12D)) [nM]	IC50 [4, 5] [nM]	IC50 (SW620 cells (KRAS G12V)) [nM]	SMILES	IC50 [1] [nM]	IC50 [3] [nM]	IC50 ([4]; SW620, 4 hours) [nM]
1	4	5	16	4	3	CO[C@@H](C)c1ncc(N2CCN(C)CC2)cc1-c1c2c3c(F)c(ccc3n1CC(F)(F)F)-c1csc(n1)C[C@H](NC(=O)[C@H](C(C)C)N(C)C(=O)N1CC(N(C)C)C1)C(=O)N1CCC[C@H](N1)C(=O)OCC(C)(C)C2 (atropisomer, axis not shown; (M)) [Example 2, 3-(dimethylamino)-N-[(1S)-1-[[(7S,13S)-25-fluoro-(20M)-20-[2-[(1S)-1-methoxyethyl]-5-(4-methylpiperazin-1-yl)-3-pyridyl]-17,17-dimethyl-8,14-dioxo-21-(2,2,2-trifluoroethyl)-15-oxa-4-thia-9,21,27,28-tetrazapentacyclo[17.5.2.1^2,5.1^9,13.0^22,26]octacosa-1(25),2,5 (28),19,22 (26),23-hexaen-7-yl]carbamoyl]-2-methyl-propyl]-N-methyl-azetidine-1-carboxamide]			
1	1	1	15	1	1	CO[C@@H](C)c1ncc(N2CCN(C)CC2)cc1-c1c2c3cc(ccc3n1CC(F)(F)F)-c1csc(n1)C[C@H](NC(=O)[C@H](C(C)C)N(C)C(=O)N1CCOCC1)C(=O)N1CCC[C@H](N1)C(=O)OCC(C)(C)C2 (atropisomer, axis not shown; (M)) [Example 3, N-[(1S)-1-[[(7S,13S)-24-fluoro-(20M)-20-[2-[(1S)-1-methoxyethyl]-5-(4-methylpiperazin-1-yl)-3-pyridyl]-17,17-dimethyl-8,14-dioxo-21-(2,2,2-trifluoroethyl)-15-oxa-4-thia-9,21,27,28-tetrazapentacyclo[17.5.2.1^2,5.1^9,13.0^22,26]octacosa-1 (25),2,5 (28),19,22 (26),23-hexaen-7-yl]carbamoyl]-2-methyl-propyl]-N-methyl-morpholine-4-carboxamide]			
						COC(C)c1ncc(N2CCN(CC(F)(F)F)CC2)cc1-c1c2c3cc(c(F)cc3n1CC(F)(F)F)-c1csc(n1)CC(NC(=O)C(C(C)C)N(C)C(=O)N1CCN(C)CC1)C(=O)N1CCCC(N1)C(=O)OCC(C)(C)C2 [Example 18, N-[(1S)-1-[[(7S,13S)-24-fluoro-(20M)-20-[2-[(1S)-1-methoxyethyl]-5-[4-(2,2,2-trifluoroethyl)piperazin-1-yl]-3-pyridyl]-17,17-dimethyl-8,14-dioxo-21-(2,2,2-trifluoroethyl)-15-oxa-4-thia-9,21,27,28-tetrazapentacyclo[17.5.2.1^2,5.1^9,13.0^22,26]octacosa-1 (25),2,5 (28),19,22 (26),23-hexaen-7-yl]carbamoyl]-2-methyl-propyl]-N,4-dimethyl-piperazine-1-carboxamide]	23	12	7
						COC(C)c1ncc(N2CCN(CC(F)(F)F)CC2)cc1-c1c2c3cc(c(F)cc3n1CC(F)(F)F)-c1csc(n1)CC(NC(=O)C(C(C)C)N(C)C(=O)N1CCN(CC(F)(F)F)CC1)C(=O)N1CCCC(N1)C(=O)OCC(C)(C)C2 [Example 19, N-[(1S)-1-[[(7S,13S)-24-fluoro-(20M)-20-[2-[(1S)-1-methoxyethyl]-5-[4-(2,2,2-trifluoroethyl)piperazin-1-yl]-3-pyridyl]-17,17-dimethyl-8,14-dioxo-21-(2,2,2-trifluoroethyl)-15-oxa-4-thia-9,21,27,28-tetrazapentacyclo[17.5.2.1^2,5.1^9,13.0^22,26]octacosa-1 (25),2,5 (28),19,22 (26),23-hexaen-7-yl]carbamoyl]-2-methyl-propyl]-N-methyl-4-(2,2,2-trifluoroethyl) piperazine-1-carboxamide]	66	54	16
